Values joined by “and” are separate entries in the source; they are usually repeats but may differ in a detail not shown here. Equal entries are not always repeated. Where two headings read alike, the source gives them in different places.
Columns and labels:
Format in all cases: physicochemical
[1] = Solubility of the disodium salt in water; conditions: 25° C.
Method: N-4-(1H-tetrazol-5-yl)phenyl-4-(1H-tetrazol-5-yl)benzamide is prepared as described in WO 90/09989, Example 13 (herein incorporated by reference). The disodium salt of N-4-(1H-tetrazol-5-yl)phenyl-4-(1H-tetrazol-5-yl)benzamide can be prepared directly as the pentahydrate or precipitated as an undefined mixture of hydrates and then converted into the pentahydrate (Form A), by re-crystallization or by phase equilibration (slurry conversion: slurry in an appropriate solvent mixture). In both cases the disodium salt is obtained by adding to a suspension in water of N-4-(1H-tetrazol-5-yl)phenyl-4-(1H-tetrazol-5-yl)benzamide, an amount of aqueous sodium hydroxide or sodium alkoxide, ranging from 2.0 to 2.2 equivalents, preferably 2.1 equivalents, being sodium methoxide, sodium ethoxide and sodium isopropoxide the preferred alkoxide, at a temperature ranging from +15° to +40° C. […] The resulting mixture is stirred until the solid is completely dissolved, then the pH of the solution is carefully adjusted to 6.5-7.5, by addition of diluted hydrochloric acid, filtered and concentrated under vacuum, at a temperature not exceeding +60° C. […]

[2] = Moisture sorption/desorption by Differential Vapor Sorption (DVS); conditions: for R.H. at which substantial desorption (loss of water) starts: DVS scanning mode, 5% ΔR.H. per hour
Method: The moisture sorption/desorption behavior was analyzed for different solids using Differential Vapor Sorption (DVS) technique. In FIG. 8 is reported as an example the sorption/desorption isotherms for batch B/6272. […] Though the different batches were not characterized by exactly matching DVS diagrams all reached the about 20% water content after an appropriate time.
This surprising stability to moisture of Form A is also confirmed by DVS experiments. In the scanning mode, water is only lost when about 0% R.H. is reached. Moisture sorption/desorption behavior for the pentahydrate is reported in Example 9 (FIG. 14).
Water vapor sorption/desorption was analyzed using Surface Measurement System Ltd. DVS-1 apparatus. The sample was allowed to equilibrate at 50% R.H. before starting a predefinite humidity program, scanning with 5% ΔR.H. hour^−1 and with several “isohumid” equilibration periods (see FIG. 14 for details). The water content of the sample used for DVS was calculated on the basis of KF analysis, while crystalline form was assessed by FT-Raman spectroscopy. The DVS plots of water content vs. R.H. and R.H. vs. time are reported for Andolast disodium pentahydrate (Form A) in FIG. 14. It can be seen from the DVS plot that substantial desorption starts only at almost 0% RH.

[3] = Aerosol performance of dry powder formulation for inhalation by MSLI (Multi Step Liquid Impinger); conditions: dose 8 mg
Source text: As discussed below Andolast disodium salt as Form A can be formulated according to several pharmaceutical compositions.

[4] = Storage of open samples in humidity controlled chamber (stability to moisture, Example 8); conditions: 9 days; for FT-Raman / KF (water content) / XRPD: open sample
Source text: The list of improved physical and mechanical characteristics reported below is intended at documenting representative examples of advantages Form A is endowed with over the undefined hydrated forms obtained according to uncontrolled conditions.
samples of Form A were stored, as open samples, in an humidity controlled chamber for 9 days, in Table 5 water content (KF), XRPD and FT-Raman spectra at the end-point of the experiment are reported vs. R.H. […]

[5] = Stability to temperature and mechanical mill (Example 10); conditions: open sample 1 day at 50° C., then milled 10 min at 24 s−1 in ball swing mill
Method: about 1 g of Andolast disodium salt Form A was stored, as open sample, for 1 day at 50° C. The product was then milled for 10 min. at 24 s−1 in a ball swing mill. A sample was then analyzed by KF and FT-Raman spectroscopy.

[6] = Stability of crystalline form to jet mill micronization (Example 11); conditions: MC Jet Mill, nitrogen, 12 bar, about 10 g/30 sec, without cooling
Source text: In Example 11 it is reported how Form A can be successfully micronized using conditions identical to the ones used for the micronization of the batch B/7081 (see FIGS. 7a and 7b for XRPD spectra) without altering XRPD and spectroscopic characteristics (Ft-Raman and FT-IR), thus proving Form A stability and crystalline form consistency also after the micronization step affording the suitable drug substance for preparing dry powder and pressurized HFA aerosols formulations for inhalation.
Andolast disodium form A is micronized, without cooling, using an MC Jet Mill apparatus, and nitrogen as carrier gas, at 12 bar and with a feeding rate of about 10 g/30 sec.

[7] = ICH accelerated stability testing
[8] = active ingredient/excipient 1:1, Mean of 6 MSLI runs
[9] = active ingredient/excipient 1:1, capsule inhaler, single MSLI runs 1-6
[10] = active ingredient/excipient 1:1, Mean of 6 MSLI runs, listed as Form A obtained at Example 3
[11] = active ingredient/excipient 1:1, capsule inhaler, single MSLI runs 1-6, listed as Form A obtained at Example 3

Compound: O=C(Nc1ccc(-c2nn[n-]n2)cc1)c1ccc(-c2nn[n-]n2)cc1.[Na+].[Na+] [Andolast disodium salt, N-4-(1H-tetrazol-5-yl)phenyl-4-(1H-tetrazol-5-yl)benzamide disodium salt]
- solubility [1]: ~150 mg/mL

Compound: O=C(Nc1ccc(-c2nn[n-]n2)cc1)c1ccc(-c2nn[n-]n2)cc1.[Na+].[Na+] [B/6272, reference compound]
- hygroscopic character of the solid [2]: strongly hygroscopic
- water content at plateau of moisture sorption ([2]; DVS, continuous sorption of moisture): about 20%

Compound: O=C(Nc1ccc(-c2nn[n-]n2)cc1)c1ccc(-c2nn[n-]n2)cc1.[Na+].[Na+] [B/7080, reference compound]
- DD (Delivered Dose) [3, 8]: 6.63 mg
- FPD (Fine Particle Dose) [3, 8]: 1.12 mg
- FPF (Fine Particle Fraction) [3, 8]: 17%
- MD (Metered Dose) [3, 8]: 7.55 mg
- MMAD [3, 8]: 5.2 μm
- DD (Delivered Dose) [3, 9]: 6.66 mg and 5.96 mg and 6.77 mg and 7.01 mg and 6.57 mg and 6.81 mg
- FPD (Fine Particle Dose) [3, 9]: 0.96 mg and 0.99 mg and 1.21 mg and 1.01 mg and 1.23 mg and 1.30 mg
- MD (Metered Dose) [3, 9]: 7.60 mg and 7.29 mg and 7.61 mg and 7.85 mg and 7.65 mg
- MMAD [3, 9]: 5.3 μm and 5.2 μm and 5.1 μm and 5.4 μm

Compound: O=C(Nc1ccc(-c2nn[n-]n2)cc1)c1ccc(-c2nn[n-]n2)cc1.[Na+].[Na+] [Example 3]
- DD (Delivered Dose) [3, 10]: 7.46 mg
- FPD (Fine Particle Dose) [3, 10]: 2.16 mg
- FPF (Fine Particle Fraction) [3, 10]: 29%
- MD (Metered Dose) [3, 10]: 8.48 mg
- MMAD [3, 10]: 3.8 μm
- DD (Delivered Dose) [3, 11]: 7.25 mg and 7.54 mg and 7.47 mg and 7.33 mg and 7.71 mg and 7.43 mg
- FPD (Fine Particle Dose) [3, 11]: 1.96 mg and 2.07 mg and 2.58 mg and 1.97 mg and 2.18 mg and 2.20 mg
- FPF (Fine Particle Fraction) [3, 11]: 27% and 35% and 28% and 30%
- MD (Metered Dose) [3, 11]: 8.31 mg and 8.67 mg and 8.46 mg and 8.33 mg and 8.49 mg and 8.60 mg
- MMAD [3, 11]: 3.8 μm and 4.0 μm and 3.6 μm and 3.9 μm

Compound: O=C(Nc1ccc(-c2nn[n-]n2)cc1)c1ccc(-c2nn[n-]n2)cc1.[Na+].[Na+] [Form A, N-4-(1H-tetrazol-5-yl)phenyl-4-(1H-tetra-zol-5yl)benzamide disodium salt]
- Stability to moisture (water content and solid form) ([4]; R.H. from 12% to 85%, room temperature): did not alter the water content of any sample, neither the solid form
- FT-Raman ([4]; RH 12%): Complies with Form A
- KF (water content) ([4]; RH 12%): 19.26%
- XRPD ([4]; RH 12%): Complies with Form A
- FT-Raman ([4]; RH 22%): Complies with Form A
- KF (water content) ([4]; RH 22%): 19.36%
- XRPD ([4]; RH 22%): Complies with Form A
- FT-Raman ([4]; RH 32%): Complies with Form A
- KF (water content) ([4]; RH 32%): 19.34%
- XRPD ([4]; RH 32%): Complies with Form A
- FT-Raman ([4]; RH 53%): Complies with Form A
- KF (water content) ([4]; RH 53%): 19.35%
- XRPD ([4]; RH 53%): Complies with Form A
- FT-Raman ([4]; RH 65%): Complies with Form A
- KF (water content) ([4]; RH 65%): 19.25%
- XRPD ([4]; RH 65%): Complies with Form A
- FT-Raman ([4]; RH 75%): Complies with Form A
- KF (water content) ([4]; RH 75%): 19.22%
- XRPD ([4]; RH 75%): Complies with Form A
- FT-Raman ([4]; RH 85%): Complies with Form A
- KF (water content) ([4]; RH 85%): 19.43%
- XRPD ([4]; RH 85%): Complies with Form A
- R.H. at which substantial desorption (loss of water) starts ([2]; disodium salt): about 0 % RH
- R.H. at which substantial desorption (loss of water) starts ([2]; listed as Andolast disodium pentahydrate (Form A), disodium salt): ~0 % RH
- hygroscopic character of the solid ([2]; listed as Andolast disodium Form A, disodium salt): not hygroscopic
- KF (water content) [5]: 19.53%
- crystalline change by Raman spectra [5]: no crystalline change occurred
- changes in XRPD, FT-IR and FT-Raman versus not-micronized starting material [6]: no changes were observed
- stability (physical form and chemical stability) [7]: confirmed its stability

From patent publication US7824710B2, “Crystalline and stable form of andolast” (Rottapharm S.p.A., priority 2006, dated 2010)
